Consider nine compounds from patent publication US9512139B2, “Conformationally constrained, fully synthetic macrocyclic compounds” (POLYPHOR AG, priority 2009, dated 2016).

The target of series [1] is T1, Motilin Receptor (Homo sapiens, UniProt O43193).
T1 construct: host or cells: Ca2+ optimized hematopoietic cell lines (rat)
Put plainly: Ca2+ assay (FLIPR) for the GPCR motilin receptor, agonist and antagonist mode. Type of series: cell-based. As to conditions: antagonist mode. As for the experimental part: Ca^2+ Assays for the GPCRs Motilin Receptor, Prostaglandin F (FP) Receptor, 5-hydroxytryptamine 2B (5-HT2B) Receptor, and Purinoreceptor P2Y1
Assays were performed using on a FLIPR^TETRA fluorometric imaging plate reader (Molecular Devices) with ScreenWorks Version 2 (Molecular Devices) as device operating and data analysis software.
Dose dependent agonist and antagonist activities were determined. Percentage activation and percentage inhibition values were determined.
Percentage activation was determined upon initial addition of the sample compounds followed by 10 minutes incubation at 25° C. Following compound incubation, reference agonists were added at EC80 to determine percentage inhibition.
Reference agonists were purchased from reputable commercial vendors and prepared according to each ligand's specifications. All handling of ligands were done to ensure proper control throughout the experiments.
Example compounds were weighed on a Microbalance (Mettler MX5) and dissolved in 100% DMSO to a final concentration of 2.5 mM and subsequently diluted into the assay buffer.
The Assay buffer was a supplemented HBSS (Hank's Balanced Salt Solution). HBSS was supplemented with 20 mM HEPES (4-(2-hydroxyethyl)-piperazin-1-ethansulfonic acid) and 2.5 mM Probenecid (Sigma P8761).
GPCR assays were performed using Ca^2+ optimized hematopoietic cell lines (rat) with cultures never exceeding 90% confluency. […] After seeding, the assay plates were incubated for forty-five (45) minutes at room temperature. After room temperature incubation, the assay plates were incubated at 37° C. 5% CO2 for 24 hours prior to assaying.
All GPCR assays were performed using Fluo-8 Ca^2+ dye. Ca^2+ dye was prepared at 1× dye concentration in GPCR assay buffer. After 24 hours of incubation, cells were washed with GPCR assay buffer, and then Ca^2+-dye (100 μL/well) was added.
The plates were incubated for 90 minutes at 30° C. 5% CO2 prior to FLIPR assay.
Compound plates were prepared to add 50 μL/well during the agonist assay mode. During the FLIPR assay, 50 μL/well from the compound plate was diluted 3-fold into the existing 100 μL/well from the dye loading step. Therefore all compounds were prepared as 3× the final concentration desired in the assay.
After completion of the first single addition assay run, assay plate was removed from the FLIPR Tetra and placed at 25° C. for seven (7) minutes before antagonist assay.
Using the EC80 values determined during the agonist assay, all pre-incubated sample compound and reference antagonist (if applicable) wells were stimulated at the EC80 of the reference agonist. As reference ligands for the first three assays their obvious natural ligands motilin, prostaglandin F2α, and serotonin (5-HT, 5-Hydroxytryptamine) were used; and for the P2Y1 assay 2MeSATP (2-methyl-thio-adeno-sine 5′-triphosphate, i.e. (2R,3S,4R)-5-(6-amino-2-methylsulfanyl-purin-9-yl)-3,4-dihydroxy-tetrahydrofuran-2-yl]methyl (hydroxy-phosphonooxy-phosphoryl)hydrogen phosphate) was applied.
After the addition of the reference agonist fluorescence was monitored for 180 sec using FLIPR Tetra.
Data Analysis and Results:
From the FLIPR data, with negative control correction enabled, the maximum statistic for each well was exported and percentage activation relative to Emax control was calculated.

Series [2] is described as follows: in vitro. The following applies: human, plasma, 10 µM; for Plasma Stability 240 min hum [% remain.]: 4 h. Type of series: in vitro ADME, human.
Protocol: (§1) Example compounds were dissolved in DMSO/H2O 90:10 to a final concentration of 10 mM for plasma stability determination and metabolic stability determination.
(§2) Human plasma (3-5 donors, Blutspendedienst SRK, Basel) and CD-1 mouse plasma (mixed gender pool >50 animals, Innovative Research, CA, USA) are both sodium citrate stabilized. The assay is performed in triplicates at 10 μM compound concentration and 37° C. Samples are taken at 0, 15, 60, and 240 minutes and stopped by precipitation with 2 volumes of acetonitrile. The supernatant is collected, evaporated and reconstituted in a 5% acetonitrile solution to be analyzed by HPLC/MS/MS. The resulting peak area counts are expressed in percent of the 0 value and used to determine the endpoint stability in % and the half life in minutes. In order to monitor assay integrity the degradation of propantheline is assayed with every experimental set.
Series [3] in a line: in vitro. As to conditions: both, CD-1, mouse, plasma, 10 µM; for Plasma Stability 240 min mouse [% remain.]: 4 h. Type of series: in vitro ADME, mouse.
Protocol: as §1, §2
Series [4] in a line: Metabolic stability assay, human microsomes. Format: in vitro ADME. The following applies: human, microsomes; for half-life at 10 µM: both sexes; for Metabolic Stability 60 min hum [% remain.]: 1 h.
Series [5] can be described thus: Metabolic stability assay, CD-1 mouse microsomes. As to conditions: CD-1, mouse, microsomes; for Metabolic Stability T½ [min] mouse / Metabolic Stability 60 min mouse [% remain.]: both, 10 µM; for Metabolic Stability 60 min mouse [% remain.]: 1 h. Type of series: in vitro ADME.
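For Plasma Stability 240 min mouse [% remain.] in this document: sodium citrate stabilized mouse plasma, parent compound quantified by HPLC/MS/MS relative to its peak area at time zero, run in triplicate.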
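For Plasma Stability T½ [min] mouse in this document: sodium citrate stabilized mouse plasma, parent compound quantified by HPLC/MS/MS relative to its peak area at time zero, run in triplicate.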

T1 sequence (O43193 whole entry, species assumed): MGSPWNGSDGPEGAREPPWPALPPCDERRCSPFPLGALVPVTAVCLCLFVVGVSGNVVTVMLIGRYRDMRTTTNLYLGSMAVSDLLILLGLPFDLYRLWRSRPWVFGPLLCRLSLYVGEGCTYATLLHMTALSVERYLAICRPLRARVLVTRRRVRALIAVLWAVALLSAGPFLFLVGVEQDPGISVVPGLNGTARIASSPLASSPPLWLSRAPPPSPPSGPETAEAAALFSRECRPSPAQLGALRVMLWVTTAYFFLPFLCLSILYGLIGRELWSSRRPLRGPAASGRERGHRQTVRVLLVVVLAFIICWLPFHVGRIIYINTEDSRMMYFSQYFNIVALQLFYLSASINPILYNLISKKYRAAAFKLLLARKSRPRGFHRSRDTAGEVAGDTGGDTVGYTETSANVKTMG

In series [1], `CN(C)CCNC(=O)[C@@H]1CCC(=O)N(C)CC(=O)N2C[C@@H](NCCc3cccc4ccccc34)C[C@H]2COc2ccc(F)cc2C(=O)N1C` [Ex. 486, (2S,11S,19aS)-N-[2-(dimethylamino)ethyl]-15-fluoro-7,12-dimethyl-2-{[2-(1-naphthyl)ethyl]amino}-5,8,13-trioxo-2,3,6,7,8,9,10,11,12,13,19,19a-dodecahydro-1H,5H-pyrrolo[2,1-c] [1,4,7,12]benzoxatri-azacyclopentadecine-11-carboxamide] registered an IC50 of 0.18 µM. In addition, the inhibition at 10 µM in series [1] (at 10 μM) stood at 93%. For the same compound, in series [2], the Plasma Stability T½ [min] hum is above 240 min and the “Plasma Stability 240 min hum [% remain.]” value amounted to 100 % remain. For the same compound, in series [3], the Plasma Stability T½ [min] mouse is above 240 min and the “Plasma Stability 240 min mouse [% remain.]” value came to 98 % remain. In addition, in series [4], the half-life at 10 µM came to 0.383 h. Also, in series [4] (both, 10 µM), the “Metabolic Stability 60 min hum [% remain.]” value was found to be 13 % remain. In series [5], the Metabolic Stability T½ [min] mouse is above 60 min and the “Metabolic Stability 60 min mouse [% remain.]” value is 100 % remain.
In turn, `CN(C)CCNC(=O)[C@@H]1CCC(=O)N(C)CC(=O)N2C[C@@H](NC(=O)Cc3c[nH]c4ccccc34)C[C@H]2COc2ccc(F)cc2C(=O)N1C` [Ex. 11, (2S,11S,19aS)-N-[2-(dimethylamino)ethyl]-15-fluoro-2-{[2-(1H-indol-3-yl)acetyl]amino}-7,12-dimethyl-5,8,13-trioxo-2,3,6,7,8,9,10,11,12,13, 19,19a-dodecahydro-1H,5H-pyrrolo[2,1-c] [1,4,7,12]benzoxatriazacyclopentadecine-11-carboxamide] registered an IC50 in series [1] of 0.78 µM. This compound displayed an inhibition at 10 µM in series [1] (at 10 μM) of 79%. Besides, in series [2], the Plasma Stability T½ [min] hum was above 240 min and the “Plasma Stability 240 min hum [% remain.]” value came out at 100 % remain. Further, in series [3], the Plasma Stability T½ [min] mouse is above 240 min and the “Plasma Stability 240 min mouse [% remain.]” value came out at 100 % remain. For the same compound, in series [4] (both, 10 µM), the Metabolic Stability T½ [min] hum was above 60 min and the “Metabolic Stability 60 min hum [% remain.]” value is on record as 74 % remain. In addition, in series [5], the Metabolic Stability T½ [min] mouse was above 60 min and the “Metabolic Stability 60 min mouse [% remain.]” value was found to be 77 % remain.
For the compound `CC(=O)NCCNC(=O)[C@@H]1CCC(=O)N(C)CC(=O)N2C[C@@H](NC(=O)Cc3cccc4ccccc34)C[C@H]2COc2ccc(F)cc2C(=O)N1C` [Ex. 487, (2S,11S,19aS)-N-[2-(acetylamino)ethyl]-15-fluoro-7,12-dimethyl-2-{[2-(1-naphthyl)acetyl]amino}-5,8,13-trioxo-2,3,6,7,8,9,10,11,12,13,19,19a-dodecahydro-1H,5H-pyrrolo[2,1-c] [1,4,7,12]benzoxatri-azacyclopentadecine-11-carboxamide], the inhibition at 10 µM in series [1] (at 10 μM) is 47%.
In turn, `CN1CC(=O)N2CC(NC(=O)Cc3cccc4ccccc34)CC2COc2ccc(F)cc2C(=O)N(C)C(C(=O)NCCNc2ccccn2)CCC1=O` [Ex. 485, [2S,11S,19aS)-15-fluoro-7,12-dimethyl-2-{[2-(1-naphthyl)acetyl]amino}-5,8,13-trioxo-N-[2-(2-pyridinylamino)ethyl]-2,3,6,7,8,9,10,11,12,13,19,19a-dodecahydro-1H,5H-pyrrolo[2,1-c] [1,4,7,12]benzoxatriaza-cyclopentadecine-11-carboxamide] displayed a 50% inhibitory concentration (IC50) in series [1] of 0.28 µM. In series [1] (at 10 μM), this compound had an inhibition at 10 µM of 93%. For the same compound, in series [2], the Plasma Stability T½ [min] hum is above 240 min and the “Plasma Stability 240 min hum [% remain.]” value was 100 % remain. In addition, in series [3], the Plasma Stability T½ [min] mouse is above 240 min and the “Plasma Stability 240 min mouse [% remain.]” value stood at 99 % remain. The compound also displayed a half-life at 10 µM in series [4] of 0.233 h. Further, the “Metabolic Stability 60 min hum [% remain.]” value in series [4] (both, 10 µM) was found to be 8 % remain. In series [5] (both sexes), this compound yielded a half-life at 10 µM of 0.283 h. Besides, in series [5], the “Metabolic Stability 60 min mouse [% remain.]” value turned out to be 11 % remain.
As to `CN(C)CCNC(=O)[C@@H]1CCC(=O)N(C)CC(=O)N2C[C@@H](NC(=O)Cc3cccc(C(F)(F)F)c3)C[C@H]2COc2ccc(F)cc2C(=O)N1C` [Ex. 495, (2S,11S,19aS)-N-[2-(dimethylamino)ethyl]-15-fluoro-7,12-dimethyl-5,8,13-trioxo-2-({2-[3-(trifluoromethyl)phenyl]acetyl}amino)-2,3,6,7,8,9,10,11,12,13,19,19a-dodecahydro-1H,5H-pyrrolo[2,1-c] [1,4,7,12] benzoxatriazacyclopentadecine-11-carboxamide], the inhibition at 10 µM in series [1] (at 10 μM) was determined as 26%.
On to `CN1CC(=O)N2C[C@@H](NC(=O)Cc3cccc4ccccc34)C[C@H]2COc2ccc(F)cc2C(=O)N(C)[C@H](C(=O)NCc2cccnc2)CCC1=O` [Ex. 497, (2S,11S,19aS)-15-fluoro-7,12-dimethyl-2-{[2-(1-naphthyl)acetyl]amino}-5,8,13-trioxo-N-(3-pyridinylmethyl)-2,3,6,7,8,9, 10,11,12,13,19,19a-dodecahydro-1H,5H-pyrrolo[2,1-c][1,4,7,12]benzoxatriazacyclo-pentadecine-11-carboxamide], for which, in series [1] (at 10 μM), the “Antagonist activity [% Inhibition at 10 μM]” value is 24%.
`CN(C)CCNC(=O)[C@@H]1CCC(=O)N(C)CC(=O)N2C[C@@H](NC(=O)Cc3ccc4ccccc4c3)C[C@H]2COc2ccc(F)cc2C(=O)N1C` [Ex. 48, (2S,11S,19aS)-N-[2-(dimethylamino)ethyl]-15-fluoro-7,12-dimethyl-2-{[2-(2-naphthyl)acetyl]amino}-5,8,13-trioxo-2,3,6,7,8,9,10,11,12,13,19,19a-dodecahydro-1H,5H-pyrrolo[2,1-c] [1,4,7,12] benzoxatriazacyclopentadecine-11-carboxamide]: at 10 µM the inhibition in series [1] (at 10 μM) was 29%.
Same read-out and setting: for `CN(C)CCCNC(=O)[C@@H]1CCC(=O)N(C)CC(=O)N2C[C@@H](NC(=O)Cc3cccc4ccccc34)C[C@H]2COc2ccc(F)cc2C(=O)N1C` [Ex. 488, (2S,11S,19aS)-N-[3-(dimethylamino)propyl]-15-fluoro-7,12-dimethyl-2-{[2-(1-naphthyl)acetyl]amino}-5,8,13-trioxo-2,3,6,7,8,9,10,11,12,13,19,19a-dodecahydro-1H,5H-pyrrolo[2,1-c] [1,4,7,12] benzoxatriazacyclopentadecine-11-carboxamide] the value was 23%; for `COc1cccc(CC(=O)N[C@H]2C[C@H]3COc4ccc(F)cc4C(=O)N(C)[C@H](C(=O)NCCN(C)C)CCC(=O)N(C)CC(=O)N3C2)c1` [Ex. 496, (2S,11S,19aS)-N-[2-(dimethylamino)ethyl]-15-fluoro-2-{[2-{3-methoxyphenyl)acetyl]amino}-7,12-dimethyl-5,8,13-trioxo-2,3,6,7,8,9,10,11,12,13,19,19a-dodecahydro-1H,5H-pyrrolo[2,1-c] [1,4,7,12]benzoxatriazacyclopentadecine-11-carboxamide], 31%.

Broadly, the IC50 is the concentration that inhibits the measured activity by half. Low readings indicate inhibition by little substance, high ones a need for much substance. As usually defined, the inhibition is the relative decrease from the control value, in per cent. A lower inhibition goes with little suppression. One may read the half-life as the time in which the quantity being followed falls by half. Lower therefore signals rapid decline.
